Species: Rattus norvegicus
Assay: Open TG-GATES - Regimen: Single
Format: toxicity, organism-based, Sprague-Dawley
Parameters: regimen Single, gender Male, age 6 weeks
Conditions: in vivo, po, route gavage; for WBC / APTT / Bas / Eos / Fbg / Hb / Ht / Lym / MCH / MCHC / MCV / Mono / Neu / PT / Plat / RBC / Ret: tissue Blood; for KIDNEY_L / KIDNEY_R / KIDNEY_TOTAL: tissue Kidney; for LIVER: tissue Liver; for A/G / ALP / ALT / AST / BUN / CRE / Ca / Cl / DBIL / GLC / IP / K / LDH / Na / PL / RALB / TBIL / TC / TG / TP / gamma-GTP: tissue Plasma
[1] = 2 mg/kg, 9 h, dose level Middle
[2] = 2 mg/kg, 24 h, dose level Middle

`COc1ccc2c(c1)c(CC(=O)O)c(C)n2C(=O)c1ccc(Cl)cc1` [INDOMETHACIN] showed a WBC [1] of 114.3 x10_2/uL, a KIDNEY_L [1] of 0.9 g and a KIDNEY_R [1] of 0.9 g. It also gave a KIDNEY_TOTAL [1] of 1.8 g, an LIVER [1] of 8.3 g and an A/G [1] of 2.7. The ALP [1] was 944 IU/L, the ALT [1] was 35.2 IU/L and the AST [1] was 65.6 IU/L. It also gave a BUN [1] of 14.2 mg/dL, a CRE [1] of 0.5 mg/dL and a Ca [1] of 10.2 mg/dL. For the same compound, the Cl [1] was 106.8 meq/L, the DBIL [1] was 0.01 mg/dL and the GLC [1] was 199.6 mg/dL. The IP [1] was 10.5 mg/dL, the K [1] was 5 meq/L and the LDH [1] was 80.8 IU/L. The Na [1] was 138.2 meq/L, the PL [1] was 125.8 mg/dL and the RALB [1] was 3.9 g/dL. The TBIL [1] was 0.5 mg/dL, the TC [1] was 72.2 mg/dL and the TG [1] was 35.4 mg/dL. The TP [1] was 5.3 g/dL, the gamma-GTP [1] was 1.8 IU/L and the TERMINAL_BW [2] was 209.2 g. For the same compound, the APTT [2] was 16.1 s, the Bas [2] was 0% and the Eos [2] was 0.8%. It also gave a Fbg [2] of 204.6 mg/dL, a Hb [2] of 13.4 g/dL and a Ht [2] of 40.7%. For the same compound, the Lym [2] was 80.6%, the MCH [2] was 21.5 pg and the MCHC [2] was 33%. For the same compound, the MCV [2] was 65 fL, the Mono [2] was 8.8% and the Neu [2] was 10.2%. For the same compound, the PT [2] was 12.1 s, the Plat [2] was 96.4 x10_4/uL and the RBC [2] was 626.8 x10_4/ul. For the same compound, the Ret [2] was 8.6%, the WBC [2] was 112.4 x10_2/uL and the KIDNEY_L [2] was 0.9 g. For the same compound, the KIDNEY_R [2] was 0.9 g, the KIDNEY_TOTAL [2] was 1.9 g and the LIVER [2] was 10.1 g. It also gave an A/G [2] of 2.4, an ALP [2] of 1232.8 IU/L and an ALT [2] of 38.2 IU/L. The AST [2] was 70.6 IU/L, the BUN [2] was 16.4 mg/dL and the CRE [2] was 0.5 mg/dL. It also gave a Ca [2] of 10.4 mg/dL, a Cl [2] of 106.4 meq/L and a DBIL [2] of 0.004 mg/dL. For the same compound, the GLC [2] was 195.4 mg/dL, the IP [2] was 8.1 mg/dL and the K [2] was 4.9 meq/L. The LDH [2] was 83.6 IU/L, the Na [2] was 138.4 meq/L and the PL [2] was 140.6 mg/dL. For the same compound, the RALB [2] was 3.9 g/dL, the TBIL [2] was 0.3 mg/dL and the TC [2] was 75.4 mg/dL. It also gave a TG [2] of 95.2 mg/dL, a TP [2] of 5.6 g/dL and a gamma-GTP [2] of 1.4 IU/L. The TERMINAL_BW (5 mg/kg, 3 h, dose level High) was 201.4 g, the TERMINAL_BW (5 mg/kg, 3 h, dose level Low) was 224.1 g and the APTT (5 mg/kg, 3 h, dose level High) was 16.5 s. It also gave a Bas (5 mg/kg, 3 h, dose level High) of 0%, an Eos (5 mg/kg, 3 h, dose level High) of 0.2% and a Fbg (5 mg/kg, 3 h, dose level High) of 211 mg/dL. It also gave a Hb (5 mg/kg, 3 h, dose level High) of 13.6 g/dL, a Ht (5 mg/kg, 3 h, dose level High) of 41.1% and a Lym (5 mg/kg, 3 h, dose level High) of 78.4%. For the same compound, the MCH (5 mg/kg, 3 h, dose level High) was 21.5 pg, the MCHC (5 mg/kg, 3 h, dose level High) was 33.3% and the MCV (5 mg/kg, 3 h, dose level High) was 64.8 fL. The Mono (5 mg/kg, 3 h, dose level High) was 9%, the Neu (5 mg/kg, 3 h, dose level High) was 12.4% and the PT (5 mg/kg, 3 h, dose level High) was 12.5 s. The Plat (5 mg/kg, 3 h, dose level High) was 108.6 x10_4/uL, the RBC (5 mg/kg, 3 h, dose level High) was 634.6 x10_4/ul and the Ret (5 mg/kg, 3 h, dose level High) was 8.9%. It also gave a WBC (5 mg/kg, 3 h, dose level High) of 130.2 x10_2/uL, an APTT (5 mg/kg, 3 h, dose level Low) of 18.2 s and an Eos (5 mg/kg, 3 h, dose level Low) of 0.8%. It also gave a Fbg (5 mg/kg, 3 h, dose level Low) of 222.6 mg/dL, a Hb (5 mg/kg, 3 h, dose level Low) of 13.9 g/dL and a Ht (5 mg/kg, 3 h, dose level Low) of 38%. For the same compound, the Lym (5 mg/kg, 3 h, dose level Low) was 79.4%, the MCH (5 mg/kg, 3 h, dose level Low) was 22.1 pg and the MCHC (5 mg/kg, 3 h, dose level Low) was 36.6%. The MCV (5 mg/kg, 3 h, dose level Low) was 60.4 fL, the Mono (5 mg/kg, 3 h, dose level Low) was 2.8% and the Neu (5 mg/kg, 3 h, dose level Low) was 15.6%. For the same compound, the PT (5 mg/kg, 3 h, dose level Low) was 11.7 s, the Plat (5 mg/kg, 3 h, dose level Low) was 115.7 x10_4/uL and the RBC (5 mg/kg, 3 h, dose level Low) was 629.4 x10_4/ul. The Ret (5 mg/kg, 3 h, dose level Low) was 7.6%, the WBC (5 mg/kg, 3 h, dose level Low) was 76.1 x10_2/uL and the KIDNEY_L (5 mg/kg, 3 h, dose level High) was 0.9 g. It also gave a KIDNEY_R (5 mg/kg, 3 h, dose level High) of 1 g, a KIDNEY_TOTAL (5 mg/kg, 3 h, dose level High) of 1.9 g and a KIDNEY_L (5 mg/kg, 3 h, dose level Low) of 1 g. For the same compound, the KIDNEY_TOTAL (5 mg/kg, 3 h, dose level Low) was 2.1 g, the LIVER (5 mg/kg, 3 h, dose level High) was 9.2 g and the LIVER (5 mg/kg, 3 h, dose level Low) was 9.6 g. The A/G (5 mg/kg, 3 h, dose level High) was 1.5, the ALP (5 mg/kg, 3 h, dose level High) was 1085.6 IU/L and the ALT (5 mg/kg, 3 h, dose level High) was 42.6 IU/L. The AST (5 mg/kg, 3 h, dose level High) was 70.2 IU/L, the BUN (5 mg/kg, 3 h, dose level High) was 11 mg/dL and the CRE (5 mg/kg, 3 h, dose level High) was 0.4 mg/dL. For the same compound, the Ca (5 mg/kg, 3 h, dose level High) was 10.5 mg/dL, the Cl (5 mg/kg, 3 h, dose level High) was 105.2 meq/L and the DBIL (5 mg/kg, 3 h, dose level High) was 0.034 mg/dL. The GLC (5 mg/kg, 3 h, dose level High) was 191 mg/dL, the IP (5 mg/kg, 3 h, dose level High) was 9.5 mg/dL and the K (5 mg/kg, 3 h, dose level High) was 5 meq/L. It also gave an LDH (5 mg/kg, 3 h, dose level High) of 172 IU/L, a Na (5 mg/kg, 3 h, dose level High) of 137 meq/L and a PL (5 mg/kg, 3 h, dose level High) of 126.2 mg/dL. It also gave an RALB (5 mg/kg, 3 h, dose level High) of 3.6 g/dL, a TBIL (5 mg/kg, 3 h, dose level High) of 0.3 mg/dL and a TC (5 mg/kg, 3 h, dose level High) of 71.8 mg/dL. The TG (5 mg/kg, 3 h, dose level High) was 55 mg/dL, the TP (5 mg/kg, 3 h, dose level High) was 6.1 g/dL and the gamma-GTP (5 mg/kg, 3 h, dose level High) was 1.2 IU/L. It also gave an A/G (5 mg/kg, 3 h, dose level Low) of 1.6, an ALP (5 mg/kg, 3 h, dose level Low) of 872.4 IU/L and an ALT (5 mg/kg, 3 h, dose level Low) of 37.8 IU/L. For the same compound, the AST (5 mg/kg, 3 h, dose level Low) was 76.4 IU/L, the BUN (5 mg/kg, 3 h, dose level Low) was 10.8 mg/dL and the Cl (5 mg/kg, 3 h, dose level Low) was 103 meq/L. It also gave a DBIL (5 mg/kg, 3 h, dose level Low) of 0.068 mg/dL, a GLC (5 mg/kg, 3 h, dose level Low) of 187.6 mg/dL and an IP (5 mg/kg, 3 h, dose level Low) of 9.3 mg/dL. It also gave a K (5 mg/kg, 3 h, dose level Low) of 4.2 meq/L, an LDH (5 mg/kg, 3 h, dose level Low) of 213 IU/L and a Na (5 mg/kg, 3 h, dose level Low) of 140.8 meq/L. The PL (5 mg/kg, 3 h, dose level Low) was 145.6 mg/dL, the RALB (5 mg/kg, 3 h, dose level Low) was 3.3 g/dL and the TBIL (5 mg/kg, 3 h, dose level Low) was 0.1 mg/dL. For the same compound, the TC (5 mg/kg, 3 h, dose level Low) was 85.4 mg/dL.
